Values after ≈ are worked out from the molar mass of the structure shown.
How the values were obtained:
[1] = target: Estrogen Receptor (ERα) in MCF-7 cells (Homo sapiens (Human), UniProt P03372); experiment: MCF-7 ER down-regulation assay (immuno-fluorescence); type: cell-based; conditions: for % downregulation: shown in brackets where not >90%
[2] = Thermodynamic solubility (shake flask); type: physicochemical; conditions: aqueous phosphate buffer, 25 °C, pH 7.4, aqueous buffer, thermodynamic from solid, aqueous phosphate buffer pH 7.4, 24 hours
[3] = Human plasma protein binding (equilibrium dialysis); type: in vitro ADME; conditions: dialysis 18 hours
physchem = conditions: 1-octanol/aqueous buffer, pH 7.4

Sequence of Estrogen Receptor (ERα) in MCF-7 cells (P03372 whole entry): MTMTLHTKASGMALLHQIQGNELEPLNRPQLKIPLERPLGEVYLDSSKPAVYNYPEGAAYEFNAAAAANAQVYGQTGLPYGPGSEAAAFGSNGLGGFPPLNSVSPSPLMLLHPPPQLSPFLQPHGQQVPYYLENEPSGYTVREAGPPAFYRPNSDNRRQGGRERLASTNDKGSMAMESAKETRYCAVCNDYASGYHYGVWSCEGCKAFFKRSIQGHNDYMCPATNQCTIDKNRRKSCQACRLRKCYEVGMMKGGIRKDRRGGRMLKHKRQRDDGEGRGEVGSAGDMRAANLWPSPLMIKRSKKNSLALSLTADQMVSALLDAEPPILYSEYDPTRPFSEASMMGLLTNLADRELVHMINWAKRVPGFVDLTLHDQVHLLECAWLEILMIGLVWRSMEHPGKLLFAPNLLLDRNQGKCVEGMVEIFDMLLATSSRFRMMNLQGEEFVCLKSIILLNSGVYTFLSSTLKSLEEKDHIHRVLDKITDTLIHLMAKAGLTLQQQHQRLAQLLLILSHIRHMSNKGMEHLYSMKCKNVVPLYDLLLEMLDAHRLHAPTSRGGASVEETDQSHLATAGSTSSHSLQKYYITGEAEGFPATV

SMILES | IC50 ([1]; 18-22 hours incubation) [nM] | % downregulation [1] | solubility at 24 h [2] [µM] | Human plasma protein binding (% free) [3] [% free] | logD (physchem) | DC50 ([1]; 18-22 hours incubation, read-out: ER down regulation IC50 value) [nM]
C[C@H](COc1ccc([C@@H]2c3[nH]c4ccccc4c3C[C@@H](C)N2CC2(F)COC2)cc1)NCCCF [Example 28, 3-fluoro-N-((R)-1-(4-((1R,3R)-2-((3-fluorooxetan-3-yl)methyl)-3-methyl-2,3,4,9-tetrahydro-1H-pyrido[3,4-b]indol-1-yl)phenoxy)propan-2-yl)propan-1-amine] | 11 | (48%) | 354 (≈ 171 µg/mL) | 2.7 | 2.9 | 
C[C@@H]1Cc2c([nH]c3ccccc23)[C@@H](c2ccc(OCCNCCCF)cn2)N1CC1(F)CC1 [Example 31, 3-fluoro-N-(2-((6-((1S,3R)-2-((1-fluorocyclopropyl)methyl)-3-methyl-2,3,4,9-tetrahydro-1H-pyrido[3,4-b]indol-1-yl)pyridin-3-yl)oxy)ethyl)propan-1-amine] | 22 | (89%) | 554 (≈ 252 µg/mL) | 5.3 | 2.7 | 
C[C@@H]1Cc2c([nH]c3ccccc23)[C@@H](c2ccc(OCCNCCCF)cn2)N1CC1(F)COC1 [Example 32, 3-fluoro-N-(2-((6-((1S,3R)-2-((3-fluorooxetan-3-yl)methyl)-3-methyl-2,3,4,9-tetrahydro-1H-pyrido[3,4-b]indol-1-yl)pyridin-3-yl)oxy)ethyl)propan-1-amine] | 41 |  | 980 (≈ 461 µg/mL) | 16 | 2.1 | 
C[C@@H]1Cc2c([nH]c3ccccc23)[C@@H](c2ccc(OCCNCCCF)nc2)N1CC1(F)CC1 [Example 33, 3-fluoro-N-(2-((5-((1R,3R)-2-((1-fluorocyclopropyl)methyl)-3-methyl-2,3,4,9-tetrahydro-1H-pyrido[3,4-b]indol-1-yl)pyridin-2-yl)oxy)ethyl)propan-1-amine] | 3.3 | (87%) | 244 (≈ 111 µg/mL) | 3.0 | 3 | 
C[C@@H]1Cc2c([nH]c3ccccc23)[C@@H](c2ccc(OCCNCCCF)nc2)N1CC1(F)COC1 [Example 34, 3-fluoro-N-(2-((5-((1R,3R)-2-((3-fluorooxetan-3-yl)methyl)-3-methyl-2,3,4,9-tetrahydro-1H-pyrido[3,4-b]indol-1-yl)pyridin-2-yl)oxy)ethyl)propan-1-amine] | 6.2 |  | 787 (≈ 370 µg/mL) | 11 | 2.5 | 
COc1cc(OCCNCCCF)ncc1[C@@H]1c2[nH]c3ccccc3c2C[C@@H](C)N1CC1(F)CC1 [Example 37, 3-fluoro-N-(2-((5-((1R,3R)-2-((1-fluorocyclopropyl)methyl)-3-methyl-2,3,4,9-tetrahydro-1H-pyrido[3,4-b]indol-1-yl)-4-methoxypyridin-2-yl)oxy)ethyl)propan-1-amine] | 0.51 |  | 877 (≈ 425 µg/mL) | 8.5 | 2.4 | 
C[C@@H]1Cc2c([nH]c3ccccc23)[C@@H](c2ncc(OCCNCCCF)cn2)N1CC(C)(C)F [Example 39, 3-fluoro-N-(2-((2-((1S,3R)-2-(2-fluoro-2-methylpropyl)-3-methyl-2,3,4,9-tetrahydro-1H-pyrido[3,4-b]indol-1-yl)pyrimidin-5-yl)oxy)ethyl)propan-1-amine] | 230 |  | 328 (≈ 150 µg/mL) | 7.2 | 2.5 | 
C[C@@H]1Cc2c([nH]c3ccccc23)[C@@H](c2ccc(OCCNCCCF)cc2)N1CC(C)(F)F [Example 57, N-(2-(4-((1R,3R)-2-(2,2-difluoropropyl)-3-methyl-2,3,4,9-tetrahydro-1H-pyrido[3,4-b]indol-1-yl)phenoxy)ethyl)-3-fluoropropan-1-amine] | 0.27 |  | 35 (≈ 16.1 µg/mL) | 0.41 | 4 | 
COc1cc(NCCNCCCF)ccc1[C@@H]1c2[nH]c3ccccc3c2C[C@@H](C)N1CC(F)(F)CO [Example 59, 2,2-difluoro-3-((1R,3R)-1-(4-((2-((3-fluoropropyl)amino)ethyl)amino)-2-methoxyphenyl)-3-methyl-1,3,4,9-tetrahydro-2H-pyrido[3,4-b]indol-2-yl)propan-1-ol] | 0.25 |  | 853 (≈ 430 µg/mL) | 2.8 | 2.9 | 
COc1cc(NCCNCCCF)ccc1[C@@H]1c2[nH]c3ccccc3c2C[C@@H](C)N1CC1(F)CC1 [Example 60, N1-(4-((1R,3R)-2-((1-fluorocyclopropyl)methyl)-3-methyl-2,3,4,9-tetrahydro-1H-pyrido[3,4-b]indol-1-yl)-3-methoxyphenyl)-N2-(3-fluoropropyl)ethane-1,2-diamine] | 1.8 |  | 760 (≈ 367 µg/mL) | 7.8 | 2.9 | 
COc1cc(NCCNCCCF)ccc1[C@@H]1c2[nH]c3ccccc3c2C[C@@H](C)N1CC(F)F [Example 61, N1-(4-((1R,3R)-2-(2,2-difluoroethyl)-3-methyl-2,3,4,9-tetrahydro-1H-pyrido[3,4-b]indol-1-yl)-3-methoxyphenyl)-N2-(3-fluoropropyl)ethane-1,2-diamine] | 0.24 |  | 24 (≈ 11.4 µg/mL) | 1.3 | 3.4 | 
C[C@@H]1Cc2c([nH]c3ccccc23)[C@@H](c2cnc(OCCNCCCF)cc2F)N1CC1(F)COC1 [Example 62, 3-fluoro-N-(2-((4-fluoro-5-((1R,3R)-2-((3-fluorooxetan-3-yl)methyl)-3-methyl-2,3,4,9-tetrahydro-1H-pyrido[3,4-b]indol-1-yl)pyridin-2-yl)oxy)ethyl)propan-1-amine] |  |  | 587 (≈ 287 µg/mL) | 13 | 2.7 | 3.9
Cc1cc(OCCNCCCF)ncc1[C@@H]1c2[nH]c3ccccc3c2C[C@@H](C)N1CC(F)F [Example 63, N-(2-((5-((1R,3R)-2-(2,2-difluoroethyl)-3-methyl-2,3,4,9-tetrahydro-1H-pyrido[3,4-b]indol-1-yl)-4-methylpyridin-2-yl)oxy)ethyl)-3-fluoropropan-1-amine] | 1.8 |  | 268 (≈ 123 µg/mL) | 1.4 | > 3.6 | 
COc1cc(NCCNCCCF)ncc1[C@@H]1c2[nH]c3ccccc3c2C[C@@H](C)N1CC1(F)COC1 [Example 66, N1-(5-((1R,3R)-2-((3-fluorooxetan-3-yl)methyl)-3-methyl-2,3,4,9-tetrahydro-1H-pyrido[3,4-b]indol-1-yl)-4-methoxypyridin-2-yl)-N2-(3-fluoropropyl)ethane-1,2-diamine] | 1 |  | > 1000 | 20 | 2 | 
C[C@@H]1Cc2c([nH]c3ccccc23)[C@@H](c2cnc(OCCNCCCF)cn2)N1CC(F)(F)CO [Example 69, 2,2-difluoro-3-((1S,3R)-1-(5-(2-((3-fluoropropyl)amino)ethoxy)pyrazin-2-yl)-3-methyl-1,3,4,9-tetrahydro-2H-pyrido[3,4-b]indol-2-yl)propan-1-ol] | 0.54 |  | 820 (≈ 392 µg/mL) | 15 | 2 | 
C[C@@H]1Cc2c([nH]c3ccccc23)[C@@H](c2cnc(OCCNCCCF)cn2)N1CC(F)F [Example 70, N-(2-((5-((1S,3R)-2-(2,2-difluoroethyl)-3-methyl-2,3,4,9-tetrahydro-1H-pyrido[3,4-b]indol-1-yl)pyrazin-2-yl)oxy)ethyl)-3-fluoropropan-1-amine] | 0.88 |  | 607 (≈ 272 µg/mL) | 11 | 2.4 | 
C[C@@H]1Cc2c([nH]c3ccccc23)[C@@H](c2cnc(NCCNCCCF)cn2)N1CC(F)F [Example 71, N1-(5-((1S,3R)-2-(2,2-difluoroethyl)-3-methyl-2,3,4,9-tetrahydro-1H-pyrido[3,4-b]indol-1-yl)pyrazin-2-yl)-N2-(3-fluoropropyl)ethane-1,2-diamine] | 0.83 |  | > 1000 | 13 | 2.3 | 
COc1cc(OCCNCCCF)ccc1[C@@H]1c2[nH]c3ccccc3c2C[C@@H](C)N1CC(F)(F)F [Example 73, 3-fluoro-N-(2-(3-methoxy-4-((1R,3R)-3-methyl-2-(2,2,2-trifluoroethyl)-2,3,4,9-tetrahydro-1H-pyrido[3,4-b]indol-1-yl)phenoxy)ethyl)propan-1-amine] | 0.094 |  | 51 (≈ 25.2 µg/mL) | 0.66 | > 3.2 | 
COc1cc(OCCNCCCF)ccc1[C@@H]1c2[nH]c3ccccc3c2C[C@@H](C)N1CC(C)(F)F [Example 74, N-(2-(4-((1R,3R)-2-(2,2-difluoropropyl)-3-methyl-2,3,4,9-tetrahydro-1H-pyrido[3,4-b]indol-1-yl)-3-methoxyphenoxy)ethyl)-3-fluoropropan-1-amine] | 0.14 |  | 30 (≈ 14.7 µg/mL) | 0.33 | 3.9 | 
COc1nc(OCCNCCCF)ccc1[C@@H]1c2[nH]c3ccccc3c2C[C@@H](C)N1CC(C)(F)F [Example 77, N-(2-((5-((1R,3R)-2-(2,2-difluoropropyl)-3-methyl-2,3,4,9-tetrahydro-1H-pyrido[3,4-b]indol-1-yl)-6-methoxypyridin-2-yl)oxy)ethyl)-3-fluoropropan-1-amine] | 0.71 | (85%) | 108 (≈ 53 µg/mL) | 0.19 | > 3.6 | 
